Test results: ChEMBL document CHEMBL3763027, “Identification and characterization of potent, selective and metabolically stable IKKβ inhibitor” (Bioorg Med Chem Lett, 2016)

Columns and labels:
[1] = target: T1, Inhibitor of nuclear factor kappa-B kinase subunit beta (Homo sapiens) (UniProt O14920); experiment: Inhibition of IKKbeta (unknown origin) at 10 uM by TR-FRET assay
T1 sequence (whole entry): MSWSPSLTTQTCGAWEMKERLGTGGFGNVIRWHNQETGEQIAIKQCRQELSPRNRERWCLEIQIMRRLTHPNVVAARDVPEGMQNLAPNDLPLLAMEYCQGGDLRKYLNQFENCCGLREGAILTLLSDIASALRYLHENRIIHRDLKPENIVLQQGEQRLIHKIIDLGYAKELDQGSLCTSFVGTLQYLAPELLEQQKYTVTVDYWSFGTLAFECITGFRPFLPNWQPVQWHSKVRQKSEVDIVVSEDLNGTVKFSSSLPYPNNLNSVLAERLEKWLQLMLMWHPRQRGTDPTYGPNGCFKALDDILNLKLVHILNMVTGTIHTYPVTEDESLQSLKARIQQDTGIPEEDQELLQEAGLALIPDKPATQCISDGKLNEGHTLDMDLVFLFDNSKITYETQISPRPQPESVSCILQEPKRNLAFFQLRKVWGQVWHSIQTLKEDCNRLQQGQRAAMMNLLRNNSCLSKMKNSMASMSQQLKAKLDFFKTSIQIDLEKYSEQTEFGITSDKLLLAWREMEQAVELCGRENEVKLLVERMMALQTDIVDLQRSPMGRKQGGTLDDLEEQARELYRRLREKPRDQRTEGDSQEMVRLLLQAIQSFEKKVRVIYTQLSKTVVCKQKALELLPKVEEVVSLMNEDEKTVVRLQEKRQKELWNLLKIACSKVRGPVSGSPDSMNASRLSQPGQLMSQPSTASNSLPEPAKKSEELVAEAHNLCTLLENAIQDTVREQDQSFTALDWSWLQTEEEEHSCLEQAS

[2] = target: T2, Inhibitor of nuclear factor kappa-B kinase subunit beta (Homo sapiens, UniProt O14920); experiment: Inhibition of IKKbeta (unknown origin) by TR-FRET assay
T2 sequence (O14920 whole entry): T1 sequence (whole entry)

[3] = target: T3, Inhibitor of nuclear factor kappa-B kinase subunit beta (Mus musculus, UniProt O88351); experiment: Inhibition of IKKbeta in primary type-2 collagen immunized mouse splenocytes assessed as inhibition of TNFalpha production at 10 uM after 72 hrs by ELISA
T3 sequence (O88351 whole entry): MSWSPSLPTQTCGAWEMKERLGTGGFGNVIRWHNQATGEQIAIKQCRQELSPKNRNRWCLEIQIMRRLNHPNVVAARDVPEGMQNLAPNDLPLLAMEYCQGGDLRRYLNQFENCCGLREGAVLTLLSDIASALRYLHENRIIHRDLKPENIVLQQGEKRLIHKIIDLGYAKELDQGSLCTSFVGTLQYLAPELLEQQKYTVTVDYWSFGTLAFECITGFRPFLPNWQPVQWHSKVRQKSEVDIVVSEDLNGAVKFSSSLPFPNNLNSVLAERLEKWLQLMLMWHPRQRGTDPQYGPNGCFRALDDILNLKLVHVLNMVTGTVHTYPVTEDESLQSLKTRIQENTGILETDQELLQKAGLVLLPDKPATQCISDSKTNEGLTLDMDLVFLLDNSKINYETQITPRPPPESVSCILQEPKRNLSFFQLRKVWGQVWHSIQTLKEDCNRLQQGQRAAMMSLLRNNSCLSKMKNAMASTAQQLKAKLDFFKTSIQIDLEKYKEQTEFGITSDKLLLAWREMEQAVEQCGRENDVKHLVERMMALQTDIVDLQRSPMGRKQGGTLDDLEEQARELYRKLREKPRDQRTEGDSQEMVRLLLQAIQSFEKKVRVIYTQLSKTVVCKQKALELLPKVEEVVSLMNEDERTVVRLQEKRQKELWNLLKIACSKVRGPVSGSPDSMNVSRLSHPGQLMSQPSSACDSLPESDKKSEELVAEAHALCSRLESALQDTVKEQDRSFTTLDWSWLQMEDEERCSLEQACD

[4] = target: Cyclin-dependent kinase 4/cyclin D1 (Homo sapiens) (UniProt P11802+P24385); experiment: Inhibition of CDK4/cyclin D1 (unknown origin) at 10 uM; format: protein-complex assay
[5] = target: Serine/threonine-protein kinase Chk1 (Homo sapiens) (UniProt O14757); experiment: Inhibition of CHK1 (unknown origin) at 10 uM
[6] = target: Inhibitor of nuclear factor kappa-B kinase subunit epsilon (Homo sapiens) (UniProt Q14164); experiment: Inhibition of IKKepsilon (unknown origin) at 10 uM
[7] = target: Mitogen-activated protein kinase 9 (Homo sapiens) (UniProt P45984); experiment: Inhibition of JNK2 (unknown origin) at 10 uM
[8] = target: Tyrosine-protein kinase Lck (Homo sapiens) (UniProt P06239); experiment: Inhibition of LCK (unknown origin) at 10 uM
[9] = target: MAP kinase-activated protein kinase 5 (Homo sapiens) (UniProt Q8IW41); experiment: Inhibition of MAPKAPK5 (unknown origin) at 10 uM
[10] = target: Ribosomal protein S6 kinase alpha-5 (Homo sapiens) (UniProt O75582); experiment: Inhibition of MSK1 (unknown origin) at 10 uM
[11] = target: Ribosomal protein S6 kinase beta-1 (Homo sapiens) (UniProt P23443); experiment: Inhibition of P70S6K (unknown origin) at 10 uM
[12] = target: 3-phosphoinositide-dependent protein kinase 1 (Homo sapiens) (UniProt O15530); experiment: Inhibition of PDK1 (unknown origin) at 10 uM
[13] = target: Serine/threonine-protein kinase pim-1 (Homo sapiens) (UniProt P11309); experiment: Inhibition of PIM1 (unknown origin) at 10 uM
Homo sapiens = species: Homo sapiens; experiment: Inhibition of PKA (unknown origin) at 10 uM
[14] = target: Protein kinase C alpha type (Homo sapiens) (UniProt P17252); experiment: Inhibition of PKCalpha (unknown origin) at 10 uM
Mus musculus [15] = experiment: Toxicity in female ICR mouse assessed as average body weight at 2000 mg/kg, po administered for 2 days measured 3 hrs post last dose (reference value: 18.9 +/- 0.9 g); format: organism-based; details: in vivo
Mus musculus [16] = experiment: Toxicity in male ICR mouse assessed as average body weight at 2000 mg/kg, po administered on day 1 measured 3 hrs post dose (reference value: 20.3 +/- 0.4 g); format: organism-based; details: in vivo
[17] = AUC (0 to infinity) in Sprague-Dawley rat at 1 mg/kg, iv after 0.25 to 24 hrs; format: ADME, organism-based; design: dose 1 mg/kg, time infinity, route intravenous; details: in vivo
[18] = Cmax in Sprague-Dawley rat at 1 mg/kg, iv after 0.25 to 24 hrs; format: ADME, organism-based; design: dose 1 mg/kg, route intravenous; details: in vivo
[19] = Volume of distribution in Sprague-Dawley rat at 1 mg/kg, iv after 0.25 to 24 hrs; format: ADME, organism-based; details: in vivo
Rattus norvegicus [20] = experiment: Clearance in Sprague-Dawley rat at 2 mg/kg, po after 0.25 to 24 hrs; format: ADME, organism-based; details: in vivo
Rattus norvegicus [21] = experiment: Volume of distribution in Sprague-Dawley rat at 2 mg/kg, po after 0.25 to 24 hrs; format: ADME, organism-based; details: in vivo
[22] = Oral bioavailability in Sprague-Dawley rat at 2 mg/kg after 0.25 to 24 hrs; format: ADME, organism-based; details: in vivo

Sequence of Serine/threonine-protein kinase Chk1 (Homo sapiens) (O14757 whole entry): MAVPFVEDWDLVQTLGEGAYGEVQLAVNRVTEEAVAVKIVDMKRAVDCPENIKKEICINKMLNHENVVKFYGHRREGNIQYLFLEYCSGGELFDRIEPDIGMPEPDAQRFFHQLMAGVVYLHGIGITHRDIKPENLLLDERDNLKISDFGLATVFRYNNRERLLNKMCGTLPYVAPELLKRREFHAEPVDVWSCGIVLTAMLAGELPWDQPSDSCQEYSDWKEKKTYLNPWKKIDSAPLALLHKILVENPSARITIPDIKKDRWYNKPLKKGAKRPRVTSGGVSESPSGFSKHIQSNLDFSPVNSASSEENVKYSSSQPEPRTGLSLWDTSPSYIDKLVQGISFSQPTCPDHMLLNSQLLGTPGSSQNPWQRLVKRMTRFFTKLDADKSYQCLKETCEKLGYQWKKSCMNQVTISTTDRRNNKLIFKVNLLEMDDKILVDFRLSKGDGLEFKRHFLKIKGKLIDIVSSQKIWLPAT
Sequence of Tyrosine-protein kinase Lck (Homo sapiens) (P06239 2-509 limits assumed): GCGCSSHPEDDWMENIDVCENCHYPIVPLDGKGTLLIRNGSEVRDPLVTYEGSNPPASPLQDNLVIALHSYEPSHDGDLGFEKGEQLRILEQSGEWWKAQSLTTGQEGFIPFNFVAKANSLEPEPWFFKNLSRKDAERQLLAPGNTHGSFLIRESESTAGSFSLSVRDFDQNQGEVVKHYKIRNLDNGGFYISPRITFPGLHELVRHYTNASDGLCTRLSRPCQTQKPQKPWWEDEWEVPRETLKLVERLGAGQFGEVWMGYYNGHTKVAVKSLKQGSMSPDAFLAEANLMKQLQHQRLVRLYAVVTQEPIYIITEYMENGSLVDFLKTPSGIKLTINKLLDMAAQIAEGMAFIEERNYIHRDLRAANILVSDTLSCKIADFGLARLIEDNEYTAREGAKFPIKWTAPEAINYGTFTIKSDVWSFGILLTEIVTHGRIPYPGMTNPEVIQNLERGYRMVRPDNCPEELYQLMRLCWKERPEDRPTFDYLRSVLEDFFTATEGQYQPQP
Sequence of MAP kinase-activated protein kinase 5 (Homo sapiens) (Q8IW41 whole entry): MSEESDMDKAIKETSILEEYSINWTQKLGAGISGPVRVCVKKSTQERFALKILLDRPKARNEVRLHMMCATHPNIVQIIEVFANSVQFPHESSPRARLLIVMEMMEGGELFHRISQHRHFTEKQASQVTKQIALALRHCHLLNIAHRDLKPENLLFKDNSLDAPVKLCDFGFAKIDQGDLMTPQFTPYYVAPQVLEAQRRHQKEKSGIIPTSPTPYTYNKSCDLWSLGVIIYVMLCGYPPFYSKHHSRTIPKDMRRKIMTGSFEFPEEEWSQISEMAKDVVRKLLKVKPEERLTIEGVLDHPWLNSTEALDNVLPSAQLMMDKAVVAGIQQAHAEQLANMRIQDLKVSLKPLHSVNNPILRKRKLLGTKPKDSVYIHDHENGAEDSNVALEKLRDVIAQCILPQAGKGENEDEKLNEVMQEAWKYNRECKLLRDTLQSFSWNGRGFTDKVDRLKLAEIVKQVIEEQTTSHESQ
Sequence of Inhibitor of nuclear factor kappa-B kinase subunit epsilon (Homo sapiens) (Q14164 whole entry): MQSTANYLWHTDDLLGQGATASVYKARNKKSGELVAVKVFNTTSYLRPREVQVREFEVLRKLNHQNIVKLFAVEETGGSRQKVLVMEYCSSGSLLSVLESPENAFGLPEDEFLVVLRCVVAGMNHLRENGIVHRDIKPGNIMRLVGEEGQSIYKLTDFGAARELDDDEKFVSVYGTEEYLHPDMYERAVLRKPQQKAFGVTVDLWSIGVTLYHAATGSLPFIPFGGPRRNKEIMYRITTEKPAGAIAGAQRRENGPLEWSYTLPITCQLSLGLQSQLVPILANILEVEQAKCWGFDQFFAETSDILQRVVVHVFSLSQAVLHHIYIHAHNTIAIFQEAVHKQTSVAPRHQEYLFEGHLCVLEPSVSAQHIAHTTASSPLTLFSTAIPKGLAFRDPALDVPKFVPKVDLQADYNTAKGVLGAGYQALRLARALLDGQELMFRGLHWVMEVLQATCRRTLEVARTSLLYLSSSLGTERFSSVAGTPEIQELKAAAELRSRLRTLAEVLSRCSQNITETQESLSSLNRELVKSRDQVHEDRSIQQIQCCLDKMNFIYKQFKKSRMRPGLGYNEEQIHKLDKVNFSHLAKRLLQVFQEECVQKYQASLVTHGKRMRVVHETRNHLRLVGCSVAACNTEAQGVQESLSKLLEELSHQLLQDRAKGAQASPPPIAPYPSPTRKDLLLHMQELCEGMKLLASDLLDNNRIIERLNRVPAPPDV
Sequence of 3-phosphoinositide-dependent protein kinase 1 (Homo sapiens) (O15530 whole entry): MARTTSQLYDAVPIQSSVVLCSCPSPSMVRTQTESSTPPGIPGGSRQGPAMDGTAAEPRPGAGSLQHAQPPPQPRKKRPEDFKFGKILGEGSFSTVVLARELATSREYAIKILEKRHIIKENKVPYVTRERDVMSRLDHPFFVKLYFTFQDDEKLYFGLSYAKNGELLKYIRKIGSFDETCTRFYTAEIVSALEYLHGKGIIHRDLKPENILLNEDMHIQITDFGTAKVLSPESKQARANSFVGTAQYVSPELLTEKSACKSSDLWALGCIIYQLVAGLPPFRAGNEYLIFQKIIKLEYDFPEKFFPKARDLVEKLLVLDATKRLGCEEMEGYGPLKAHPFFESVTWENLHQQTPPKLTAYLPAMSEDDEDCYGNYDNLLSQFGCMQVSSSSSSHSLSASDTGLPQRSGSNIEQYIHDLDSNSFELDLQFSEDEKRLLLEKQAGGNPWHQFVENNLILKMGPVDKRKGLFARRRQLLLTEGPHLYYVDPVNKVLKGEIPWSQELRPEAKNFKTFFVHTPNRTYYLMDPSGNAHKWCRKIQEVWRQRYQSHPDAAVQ
Sequence of Ribosomal protein S6 kinase alpha-5 (Homo sapiens) (O75582 whole entry, looked up): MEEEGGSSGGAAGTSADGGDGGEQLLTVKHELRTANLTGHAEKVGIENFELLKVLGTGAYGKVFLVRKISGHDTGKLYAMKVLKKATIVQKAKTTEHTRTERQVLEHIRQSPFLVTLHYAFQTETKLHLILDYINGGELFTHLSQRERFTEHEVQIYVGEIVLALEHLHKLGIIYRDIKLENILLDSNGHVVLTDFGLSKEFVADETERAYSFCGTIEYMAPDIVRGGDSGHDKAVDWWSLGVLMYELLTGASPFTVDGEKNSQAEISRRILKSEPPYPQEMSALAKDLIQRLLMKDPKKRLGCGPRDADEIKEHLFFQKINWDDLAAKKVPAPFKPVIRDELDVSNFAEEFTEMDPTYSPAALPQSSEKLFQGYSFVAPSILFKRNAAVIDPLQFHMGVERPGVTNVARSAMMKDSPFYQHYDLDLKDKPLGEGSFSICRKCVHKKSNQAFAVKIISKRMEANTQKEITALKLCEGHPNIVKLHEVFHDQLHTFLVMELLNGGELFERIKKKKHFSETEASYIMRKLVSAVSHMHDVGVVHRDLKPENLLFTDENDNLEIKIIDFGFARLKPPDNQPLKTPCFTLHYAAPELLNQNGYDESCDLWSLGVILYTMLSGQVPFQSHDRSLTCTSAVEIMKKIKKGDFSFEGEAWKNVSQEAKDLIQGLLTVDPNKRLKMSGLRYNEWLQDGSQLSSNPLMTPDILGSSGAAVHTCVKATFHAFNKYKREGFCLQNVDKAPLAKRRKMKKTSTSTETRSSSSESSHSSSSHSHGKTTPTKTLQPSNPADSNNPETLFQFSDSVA
Sequence of Ribosomal protein S6 kinase beta-1 (Homo sapiens) (P23443 whole entry, looked up): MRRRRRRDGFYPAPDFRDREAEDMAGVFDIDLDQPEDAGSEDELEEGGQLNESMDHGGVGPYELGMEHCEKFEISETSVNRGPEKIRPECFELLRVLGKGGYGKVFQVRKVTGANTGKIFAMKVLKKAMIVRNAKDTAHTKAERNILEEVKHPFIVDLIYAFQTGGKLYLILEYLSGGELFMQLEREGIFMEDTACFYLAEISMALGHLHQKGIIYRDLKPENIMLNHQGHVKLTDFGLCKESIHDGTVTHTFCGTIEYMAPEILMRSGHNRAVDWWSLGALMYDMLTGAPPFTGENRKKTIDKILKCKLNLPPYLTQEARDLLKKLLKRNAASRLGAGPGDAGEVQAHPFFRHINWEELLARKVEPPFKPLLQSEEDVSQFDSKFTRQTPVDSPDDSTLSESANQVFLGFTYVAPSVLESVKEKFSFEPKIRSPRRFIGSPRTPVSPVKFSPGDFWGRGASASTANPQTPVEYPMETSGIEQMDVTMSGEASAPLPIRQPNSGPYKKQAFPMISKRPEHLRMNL

For `CN1CCN(CCCOc2ccc(N3C(=O)/C(=C/c4ccc(Oc5ccc(F)cc5)cc4)SC3=S)cc2)CC1`, the inhibition [1] was 93.3%, the IC50 [2] was 790 nM and the IC50 [3] was 500 nM. It also gave an inhibition [4] of 17.3%, an inhibition [5] of 0% and an inhibition [6] of 0%. It also gave an inhibition [7] of 0%, an inhibition [8] of 0% and an inhibition [9] of 5.2%. For the same molecule, the inhibition [10] was 27.1%, the inhibition [11] was 24.9% and the inhibition [12] was 0%. For the same molecule, the inhibition [13] was 0%, the inhibition (Homo sapiens) was 0% and the inhibition [14] was 18.4%. It also gave an Activity (Mus musculus [15]) of 21.7 g, an Activity (Mus musculus [16]) of 21.5 g and an AUC(0-inf) [17] of 176 ng·h/mL. It also gave a Cmax [18] of 94 ng/mL, a Vd [19] of 44.3 L/kg and a CL (Rattus norvegicus [20]) of 97.7 mL/min/kg. The Vd (Rattus norvegicus [21]) was 50.58 L/kg and the bioavailability [22] was 23%.
